{"source": "the CheMixHub viscosity set", "experiment": "xn = mol fraction of the nth substance listed", "note": "± gives the uncertainty stated by the source."}
{"smiles": "CC(C)[C@@H]1CC[C@@H](C)C[C@H]1O", "note": "+ CCC(O)CO", "values": [{"measurement": "viscosity", "setting": "298.15 K, 101.33 kPa, x1 = 0.5", "value": 88.2, "unit": "mPa·s"}]}
{"smiles": "OCCOCCOCCO", "note": "+ CCCC(C)O", "values": [{"measurement": "viscosity", "setting": "293.15 K, 100 kPa, x1 = 0.0809", "value": "4.98 ± 0.1", "unit": "mPa·s"}, {"measurement": "viscosity", "setting": "293.15 K, 100 kPa, x1 = 0.16", "value": "6.16 ± 0.13", "unit": "mPa·s"}, {"measurement": "viscosity", "setting": "293.15 K, 100 kPa, x1 = 0.2401", "value": "7.62 ± 0.16", "unit": "mPa·s"}, {"measurement": "viscosity", "setting": "293.15 K, 100 kPa, x1 = 0.35", "value": "10.23 ± 0.21", "unit": "mPa·s"}, {"measurement": "viscosity", "setting": "293.15 K, 100 kPa, x1 = 0.44", "value": "12.89 ± 0.27", "unit": "mPa·s"}, {"measurement": "viscosity", "setting": "293.15 K, 100 kPa, x1 = 0.5601", "value": "17.73 ± 0.37", "unit": "mPa·s"}, {"measurement": "viscosity", "setting": "293.15 K, 100 kPa, x1 = 0.6499", "value": "22.03 ± 0.46", "unit": "mPa·s"}, {"measurement": "viscosity", "setting": "293.15 K, 100 kPa, x1 = 0.7401", "value": "27.33 ± 0.57", "unit": "mPa·s"}, {"measurement": "viscosity", "setting": "293.15 K, 100 kPa, x1 = 0.8501", "value": "34.9 ± 0.73", "unit": "mPa·s"}, {"measurement": "viscosity", "setting": "293.15 K, 100 kPa, x1 = 0.9401", "value": "42.55 ± 0.89", "unit": "mPa·s"}, {"measurement": "viscosity", "setting": "298.15 K, 100 kPa, x1 = 0.0809", "value": "4.35 ± 0.09", "unit": "mPa·s"}, {"measurement": "viscosity", "setting": "298.15 K, 100 kPa, x1 = 0.16", "value": "5.48 ± 0.11", "unit": "mPa·s"}, {"measurement": "viscosity", "setting": "298.15 K, 100 kPa, x1 = 0.2401", "value": "6.71 ± 0.14", "unit": "mPa·s"}, {"measurement": "viscosity", "setting": "298.15 K, 100 kPa, x1 = 0.35", "value": "8.84 ± 0.18", "unit": "mPa·s"}, {"measurement": "viscosity", "setting": "298.15 K, 100 kPa, x1 = 0.44", "value": "10.83 ± 0.23", "unit": "mPa·s"}, {"measurement": "viscosity", "setting": "298.15 K, 100 kPa, x1 = 0.5601", "value": "14.35 ± 0.3", "unit": "mPa·s"}, {"measurement": "viscosity", "setting": "298.15 K, 100 kPa, x1 = 0.6499", "value": "17.55 ± 0.37", "unit": "mPa·s"}, {"measurement": "viscosity", "setting": "298.15 K, 100 kPa, x1 = 0.7401", "value": "21.36 ± 0.45", "unit": "mPa·s"}, {"measurement": "viscosity", "setting": "298.15 K, 100 kPa, x1 = 0.8501", "value": "27.16 ± 0.57", "unit": "mPa·s"}, {"measurement": "viscosity", "setting": "298.15 K, 100 kPa, x1 = 0.9401", "value": "32.88 ± 0.69", "unit": "mPa·s"}, {"measurement": "viscosity", "setting": "303.15 K, 100 kPa, x1 = 0.0809", "value": "3.57 ± 0.08", "unit": "mPa·s"}, {"measurement": "viscosity", "setting": "303.15 K, 100 kPa, x1 = 0.16", "value": "4.56 ± 0.1", "unit": "mPa·s"}, {"measurement": "viscosity", "setting": "303.15 K, 100 kPa, x1 = 0.2401", "value": "5.62 ± 0.12", "unit": "mPa·s"}, {"measurement": "viscosity", "setting": "303.15 K, 100 kPa, x1 = 0.35", "value": "7.33 ± 0.15", "unit": "mPa·s"}, {"measurement": "viscosity", "setting": "303.15 K, 100 kPa, x1 = 0.44", "value": "8.95 ± 0.19", "unit": "mPa·s"}, {"measurement": "viscosity", "setting": "303.15 K, 100 kPa, x1 = 0.5601", "value": "11.76 ± 0.25", "unit": "mPa·s"}, {"measurement": "viscosity", "setting": "303.15 K, 100 kPa, x1 = 0.6499", "value": "14.33 ± 0.3", "unit": "mPa·s"}, {"measurement": "viscosity", "setting": "303.15 K, 100 kPa, x1 = 0.7401", "value": "17.37 ± 0.36", "unit": "mPa·s"}, {"measurement": "viscosity", "setting": "303.15 K, 100 kPa, x1 = 0.8501", "value": "21.79 ± 0.46", "unit": "mPa·s"}, {"measurement": "viscosity", "setting": "303.15 K, 100 kPa, x1 = 0.9401", "value": "26.06 ± 0.54", "unit": "mPa·s"}, {"measurement": "viscosity", "setting": "308.15 K, 100 kPa, x1 = 0.0809", "value": "3.03 ± 0.06", "unit": "mPa·s"}, {"measurement": "viscosity", "setting": "308.15 K, 100 kPa, x1 = 0.16", "value": "3.84 ± 0.08", "unit": "mPa·s"}, {"measurement": "viscosity", "setting": "308.15 K, 100 kPa, x1 = 0.2401", "value": "4.79 ± 0.1", "unit": "mPa·s"}, {"measurement": "viscosity", "setting": "308.15 K, 100 kPa, x1 = 0.35", "value": "6.2 ± 0.13", "unit": "mPa·s"}, {"measurement": "viscosity", "setting": "308.15 K, 100 kPa, x1 = 0.44", "value": "7.55 ± 0.16", "unit": "mPa·s"}, {"measurement": "viscosity", "setting": "308.15 K, 100 kPa, x1 = 0.5601", "value": "9.77 ± 0.2", "unit": "mPa·s"}, {"measurement": "viscosity", "setting": "308.15 K, 100 kPa, x1 = 0.6499", "value": "11.78 ± 0.25", "unit": "mPa·s"}, {"measurement": "viscosity", "setting": "308.15 K, 100 kPa, x1 = 0.7401", "value": "14.16 ± 0.3", "unit": "mPa·s"}, {"measurement": "viscosity", "setting": "308.15 K, 100 kPa, x1 = 0.8501", "value": "17.58 ± 0.37", "unit": "mPa·s"}, {"measurement": "viscosity", "setting": "308.15 K, 100 kPa, x1 = 0.9401", "value": "21.01 ± 0.44", "unit": "mPa·s"}, {"measurement": "viscosity", "setting": "313.15 K, 100 kPa, x1 = 0.0809", "value": "2.48 ± 0.05", "unit": "mPa·s"}, {"measurement": "viscosity", "setting": "313.15 K, 100 kPa, x1 = 0.16", "value": "3.16 ± 0.07", "unit": "mPa·s"}, {"measurement": "viscosity", "setting": "313.15 K, 100 kPa, x1 = 0.2401", "value": "3.93 ± 0.08", "unit": "mPa·s"}, {"measurement": "viscosity", "setting": "313.15 K, 100 kPa, x1 = 0.35", "value": "5.1 ± 0.11", "unit": "mPa·s"}, {"measurement": "viscosity", "setting": "313.15 K, 100 kPa, x1 = 0.44", "value": "6.26 ± 0.13", "unit": "mPa·s"}, {"measurement": "viscosity", "setting": "313.15 K, 100 kPa, x1 = 0.5601", "value": "8.19 ± 0.17", "unit": "mPa·s"}, {"measurement": "viscosity", "setting": "313.15 K, 100 kPa, x1 = 0.6499", "value": "9.89 ± 0.21", "unit": "mPa·s"}, {"measurement": "viscosity", "setting": "313.15 K, 100 kPa, x1 = 0.7401", "value": "11.86 ± 0.25", "unit": "mPa·s"}, {"measurement": "viscosity", "setting": "313.15 K, 100 kPa, x1 = 0.8501", "value": "14.62 ± 0.31", "unit": "mPa·s"}, {"measurement": "viscosity", "setting": "313.15 K, 100 kPa, x1 = 0.9401", "value": "17.22 ± 0.36", "unit": "mPa·s"}, {"measurement": "viscosity", "setting": "318.15 K, 100 kPa, x1 = 0.0809", "value": "2.24 ± 0.05", "unit": "mPa·s"}, {"measurement": "viscosity", "setting": "318.15 K, 100 kPa, x1 = 0.16", "value": "2.86 ± 0.06", "unit": "mPa·s"}, {"measurement": "viscosity", "setting": "318.15 K, 100 kPa, x1 = 0.2401", "value": "3.49 ± 0.07", "unit": "mPa·s"}, {"measurement": "viscosity", "setting": "318.15 K, 100 kPa, x1 = 0.35", "value": "4.48 ± 0.09", "unit": "mPa·s"}, {"measurement": "viscosity", "setting": "318.15 K, 100 kPa, x1 = 0.44", "value": "5.4 ± 0.11", "unit": "mPa·s"}, {"measurement": "viscosity", "setting": "318.15 K, 100 kPa, x1 = 0.5601", "value": "6.92 ± 0.14", "unit": "mPa·s"}, {"measurement": "viscosity", "setting": "318.15 K, 100 kPa, x1 = 0.6499", "value": "8.23 ± 0.17", "unit": "mPa·s"}, {"measurement": "viscosity", "setting": "318.15 K, 100 kPa, x1 = 0.7401", "value": "9.81 ± 0.21", "unit": "mPa·s"}, {"measurement": "viscosity", "setting": "318.15 K, 100 kPa, x1 = 0.8501", "value": "12.04 ± 0.25", "unit": "mPa·s"}, {"measurement": "viscosity", "setting": "318.15 K, 100 kPa, x1 = 0.9401", "value": "14.18 ± 0.3", "unit": "mPa·s"}, {"measurement": "viscosity", "setting": "323.15 K, 100 kPa, x1 = 0.0809", "value": "1.94 ± 0.04", "unit": "mPa·s"}, {"measurement": "viscosity", "setting": "323.15 K, 100 kPa, x1 = 0.16", "value": "2.47 ± 0.05", "unit": "mPa·s"}, {"measurement": "viscosity", "setting": "323.15 K, 100 kPa, x1 = 0.2401", "value": "3.03 ± 0.06", "unit": "mPa·s"}, {"measurement": "viscosity", "setting": "323.15 K, 100 kPa, x1 = 0.35", "value": "3.87 ± 0.08", "unit": "mPa·s"}, {"measurement": "viscosity", "setting": "323.15 K, 100 kPa, x1 = 0.44", "value": "4.64 ± 0.1", "unit": "mPa·s"}, {"measurement": "viscosity", "setting": "323.15 K, 100 kPa, x1 = 0.5601", "value": "5.92 ± 0.12", "unit": "mPa·s"}, {"measurement": "viscosity", "setting": "323.15 K, 100 kPa, x1 = 0.6499", "value": "6.99 ± 0.15", "unit": "mPa·s"}, {"measurement": "viscosity", "setting": "323.15 K, 100 kPa, x1 = 0.7401", "value": "8.27 ± 0.17", "unit": "mPa·s"}, {"measurement": "viscosity", "setting": "323.15 K, 100 kPa, x1 = 0.8501", "value": "10.15 ± 0.21", "unit": "mPa·s"}, {"measurement": "viscosity", "setting": "323.15 K, 100 kPa, x1 = 0.9401", "value": "11.91 ± 0.25", "unit": "mPa·s"}]}
{"smiles": "Cc1ccccc1C", "note": "+ CCCCCC", "values": [{"measurement": "viscosity", "setting": "293.15 K, 101.33 kPa, x2 = 0.29", "value": "0.5875 ± 0.012", "unit": "mPa·s"}, {"measurement": "viscosity", "setting": "293.15 K, 101.33 kPa, x2 = 0.6", "value": "0.4736 ± 0.0095", "unit": "mPa·s"}, {"measurement": "viscosity", "setting": "293.15 K, 101.33 kPa, x2 = 0.79", "value": "0.3659 ± 0.0073", "unit": "mPa·s"}, {"measurement": "viscosity", "setting": "313.15 K, 101.33 kPa, x2 = 0.29", "value": "0.4679 ± 0.0094", "unit": "mPa·s"}, {"measurement": "viscosity", "setting": "313.15 K, 101.33 kPa, x2 = 0.6", "value": "0.3797 ± 0.0076", "unit": "mPa·s"}, {"measurement": "viscosity", "setting": "313.15 K, 101.33 kPa, x2 = 0.79", "value": "0.3022 ± 0.006", "unit": "mPa·s"}]}
